Patent US6432688B1, “Amino alcohol dehydrogenase converts keto alcohol to amino alcohol and amino alcohol to keto alcohol” (Daicel Chemical Industries, Ltd., priority 1999, dated 2002)

Experiments:
[1] = test system: amino alcohol dehydrogenase derived from Streptomyces virginiae IFO 12827; experiment: Km values in reductive amination and oxidative deamination; format: biochemical
[2] = target: T1, alanine dehydrogenase (derived from Bacillus stearothermophilius, Seikagaku Corporation) (Geobacillus stearothermophilus, UniProt P17557); experiment: Reactivity of commercially available alanine dehydrogenase (NADH at 340 nm); format: biochemical; details: 1 mM NAD+, 10 mM substrate, 0.1 M Tris-HCl pH 8.0, 0.02 unit enzyme, 25° C.
T1 construct: purchased Seikagaku Corporation
Protocol: (§1) Known NAD(H)-dependent amino acid dehydrogenases reportedly act on only keto acids and amino acids as substrates (Experiments of Biochemistry, Vol. 11, ed. by Japan Society of Biochemistry, Amino acid metabolism and biological amine (I) 193-218, J. Org. Chem. 55, 5567, 1990; Fermentation and Industry 40, 301-311, 1982). […] Reactivity of a commercially available alanine dehydrogenase to amino alcohols was examined. Reaction was performed at 25° C. for several min in a reaction solution containing 1 mM NAD^+, 10 mM of each substrate, 0.1 M Tris-HCl buffer (pH 8.0), and 0.02 unit of alanine dehydrogenase (derived from Bacillus stearothermophilius, Seikagaku Corporation). NADH produced was spectroscopically measured at 340 nm.

[3] = test system: amino alcohol dehydrogenase derived from Streptomyces virginiae IFO 12827; experiment: Substrate specificity, relative activity to various substrates
Protocol: Based on this reaction, the amino alcohol dehydrogenase activity i n the crude enzyme solution was spectroscopically determined by measuring the change of absorbance at 490 nm. One unit of enzymewas defined as the amount of the enzyme producing 1 μmol formazan in 1 min under the above condition.

[4] = test system: amino alcohol dehydrogenase derived from Streptomyces virginiae IFO 12827; experiment: Coenzyme dependence; format: biochemical
[5] = test system: L-glutamate dehydrogenase derived from microorganism (Toyobo); experiment: Reactivity of L-glutamate dehydrogenase derived from microorganism; format: biochemical; details: same experiment as Comparison Example 1
Protocol: as §1
The same experiment as Comparison Example 1 was conducted using L-glutamate dehydrogenase derived from microorganism (Toyobo), and that derived from bovine liver (Lifetech Oriental).

[6] = test system: amino alcohol dehydrogenase obtained in Example 7; experiment: Enzyme reaction: conversion of substrates, product analysed by GC, HPLC or GC-MS; format: biochemical, Streptomyces virginiae IFO 12827; details: 0.5 unit enzyme, 25° C., 48 hours; reductive: 10 mM NADH, 0.2M NH4Cl, pH 8.0; oxidative: 10 mM NAD+, pH 9.0
Protocol: The amino alcohol dehydrogenase (0.5 unit) obtained in Example 7 was added to 2 ml of a mixture containing 5 mM hydroxyacetone, 10 mM NADH, 0.2M NH4Cl, 0.1 M Tris-HCl buffer (pH 8.0), and the resulting reaction mixture was incubated at 25° C. for 48 hours. The product was analyzed by gas chromatography with a FID detector (column, TENAX TA (3.2 mm×1 m); injection and detection temperature, […]; N2 flow rate, 50 ml/min; column temperature, gradient from 150 to 180° C. (5° C./min); retained at 180° C. for 10 min). […] The retention time of 2-amino-1-propanol was completely the same as that of the standard compound.
The same reaction system as used in 1) except for using oxalacetic acid as a substrate in place of hydroxyacetone was incubated at 25° C. for 48 hours. The produced amino acid was converted into an o-phthalaldehyde (OPA) derivative by OPA-derivatization method. The derivative was analyzed by high-performance liquid chromatography (column, CAPCELL PAC C18 AG120 (4.6 mm×25 cm, Shiseido); detection, 340 nm; column temperature, 45° C.; mobile phase flow rate, 1 ml/ min; concentration gradient elution, a) 10 mM sodium phosphate buffer (pH 6.8) to b) acetonitrile:10 mM sodium phosphate buffer (pH 6.8) =2:1).
The amino alcohol dehydrogenase (0.5 unit) was added to a mixture of 2 mM 1-phenethylamine, 10 mM NAD^+ and 0.1, M Tris-HCl buffer (pH 9.0), and the resulting reaction solution was incubated at 25° C. for 48 hours. The reaction solution was adjusted to pH 10.0 with NaOH and extracted with an equivalent volume of ethyl acetate.

[7] = reductive amination reaction (pH 7.0, phosphate buffer)
[8] = Substrate (Amino alcohols), activity to serinol as 100%, TABLE 3
[9] = Substrate (Amino alcohols), activity to serinol as 100%, TABLE 3 printed a second time
[10] = Substrate (Amines), TABLE 5 printed a fourth time
[11] = Substrate (Amines), TABLE 5 printed a second time
[12] = Substrate (Amines), TABLE 5 printed a third time
[13] = oxidative deamination reaction (pH 9.0, Tris-HCl buffer)

T1 sequence (P17557 whole entry): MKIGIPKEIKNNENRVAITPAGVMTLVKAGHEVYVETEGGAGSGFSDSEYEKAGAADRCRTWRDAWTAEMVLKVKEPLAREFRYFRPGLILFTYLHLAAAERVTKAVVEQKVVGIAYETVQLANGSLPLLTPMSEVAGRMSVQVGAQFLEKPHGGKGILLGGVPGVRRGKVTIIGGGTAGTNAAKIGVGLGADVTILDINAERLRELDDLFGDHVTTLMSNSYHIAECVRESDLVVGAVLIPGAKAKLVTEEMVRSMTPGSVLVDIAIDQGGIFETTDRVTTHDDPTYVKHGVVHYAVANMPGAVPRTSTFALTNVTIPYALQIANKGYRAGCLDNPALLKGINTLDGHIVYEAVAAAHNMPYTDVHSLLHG

Compound	Relative activity (%) [3, 8]	Relative activity (%) [3, 9]	Relative activity (%) ([3]; Substrate (Amines), TABLE 5)	Relative activity (%) [3, 10]	Relative activity (%) [3, 11]	Relative activity (%) [3, 12]	further results
NADH	–	–	–	–	–	–	Km [1, 7]: 22 µM
C[C@H](N)C(=O)O [L-alanine]	–	–	–	–	–	–	enzyme acts on substrate [2]: acted on
CCC(N)CO (single isomer, unassigned; (+)) [(+)-2-amino-1-butanol]	109%	109%	–	–	–	–	–
CCCCN [n-butylamine]	–	–	170%	170%	170%	170%	–
CCCC(C)N (centres unmarked) [2-aminopentane]	–	–	252%	252%	252%	252%	–
CCCC(N)CO (racemic) [DL-2-amino-1-pentanol]	103%	103%	–	–	–	–	–
CC(C)C[C@H](N)CO [(S)-(+)-leucinol]	105%	105%	–	–	–	–	–
CC(N)CCc1ccccc1 (centres unmarked) [1-methyl-3-phenylpropylamine]	–	–	152%	152%	152%	152%	–
Cl.N [NH4Cl]	–	–	–	–	–	–	Km [1, 7]: 25000 µM
CSCC[C@H](N)CO [L-(−)-methioninol]	85%	85%	–	–	–	–	–
CC(C)[C@H](N)CO [(S)-(+)-2-amino-3-methyl-1-butanol]	43%	43%	–	–	–	–	–
CC(C)(N)CO [2-amino-2-methyl-1-propanol]	115%	115%	–	–	–	–	–
CC[C@@H](C)N [(R)-2-aminobutane]	–	–	127%	127%	127%	127%	–
NADP(H)	–	–	–	–	–	–	use as coenzyme / electron acceptor [4]: does not use
NC1CCCCC1O (centres unmarked) [2-aminocyclohexanol]	113%	113%	–	–	–	–	–
NC(CO)CO [serinol]	100%	100%	–	–	–	–	Km [1, 13]: 4000 µM

Compound	Relative activity (%) [3, 8]	Relative activity (%) [3, 9]	Relative activity (%) ([3]; Substrate (Amines), TABLE 5)	Relative activity (%) [3, 10]	Relative activity (%) [3, 11]	Relative activity (%) [3, 12]	further results
CC[C@H](C)[C@H](N)CO [isoleucinol]	113%	113%	–	–	–	–	–
N[C@@H](CCC(=O)O)C(=O)O [L-glutamic acid]	–	–	–	–	–	–	enzyme acts on substrate [5]: acted on
CCC(N)CC [3-aminopentane]	–	–	270%	270%	270%	270%	–
CCCCCCCCN [n-octylamine]	–	–	114%	114%	114%	114%	–
C[C@@H](N)c1ccccc1 [(R)-1-phenethylamine]	–	–	127%	127%	127%	127%	–
CCCCC[C@@H](C)N [(R)-2-aminoheptane]	–	–	91%	91%	91%	91%	–
N[C@H](CO)Cc1ccccc1 [(S)-(−)-2-amino-3-phenyl-1-propanol]	120%	120%	–	–	–	–	–
Nc1ncccc1O [2-amino-3-hydroxypyridine]	136%	136%	–	–	–	–	–
CC(N)c1ccccc1 (centres unmarked) [1-phenethylamine]	–	–	–	–	–	–	conversion by the enzyme [6]: the enzyme converts amine into ketone
NAD(H)	–	–	–	–	–	–	use as coenzyme / electron acceptor [4]: dependent
NCc1ccccc1 [benzylamine]	–	–	134%	134%	134%	134%	–
NC(=O)c1ccc[n+]([C@@H]2O[C@H](COP(=O)([O-])OP(=O)(O)OC[C@H]3O[C@@H](n4cnc5c(N)ncnc54)[C@H](O)[C@@H]3O)[C@@H](O)[C@H]2O)c1 [NAD^+]	–	–	–	–	–	–	Km [1, 13]: 840 µM
COS(=O)(=O)[O-].C[n+]1c2ccccc2nc2ccccc21 [PMS, phenazinementasulfate, reference compound]	–	–	–	–	–	–	use as coenzyme / electron acceptor [4]: does not use
O=C(O)CC(=O)C(=O)O [oxalacetic acid]	–	–	–	–	–	–	conversion by the enzyme [6]: peak of the product, aspartic acid was observed
CC(=O)CO [hydroxyacetone]	–	–	–	–	–	–	conversion by the enzyme [6]: production of 2-amino-1-propanol was detected
CCCCCCN [n-hexylamine]	–	–	173%	173%	173%	173%	–
